Laboratory results from ChEMBL document CHEMBL5728734, “2,6-dioxaspiro [4,5] decane derivatives and preparation method therefor and pharmaceutical applications thereof” (2021).

biological target: Mu-type opioid receptor (Homo sapiens, UniProt P35372); assay: Detection of MOR cAMP Agonist Activity: The experiment was performed using a cAMP detection kit from Cisbio (Cisbio #62AM4PEJ).
Sequence (P35372 whole entry): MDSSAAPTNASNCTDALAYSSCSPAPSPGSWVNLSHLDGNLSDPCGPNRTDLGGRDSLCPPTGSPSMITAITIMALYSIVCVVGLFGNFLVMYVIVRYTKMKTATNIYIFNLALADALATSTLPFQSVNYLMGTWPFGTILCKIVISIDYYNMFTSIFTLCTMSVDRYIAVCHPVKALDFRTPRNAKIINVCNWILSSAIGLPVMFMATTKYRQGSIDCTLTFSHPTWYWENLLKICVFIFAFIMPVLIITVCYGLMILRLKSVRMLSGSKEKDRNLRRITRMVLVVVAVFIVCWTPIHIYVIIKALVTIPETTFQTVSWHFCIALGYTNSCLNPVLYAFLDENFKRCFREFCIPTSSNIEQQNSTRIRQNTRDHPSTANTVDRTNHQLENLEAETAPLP

**Q.** How did the EC50 turn out when `c1ccc([C@]2(CCNCc3scc4c3CCC4)CCO[C@]3(CCOC3)C2)nc1` was run?
**A.** 0.47 nM

**Q.** For `Fc1ccc([C@]2(CCNCc3scc4c3CCC4)CCO[C@]3(CCOC3)C2)nc1`, which EC50 is on record?
**A.** 0.1 nM

**Q.** For `c1ccc([C@]2(CCN[C@H]3CCc4ccccc43)CCO[C@]3(CCOC3)C2)nc1`, which EC50 is on record?
**A.** 4 nM

**Q.** For `Cc1cccc(CNCC[C@@]2(c3ccc(F)cn3)CCO[C@]3(CCOC3)C2)c1`, which EC50 is on record?
**A.** 0.1 nM

**Q.** `c1ccc([C@]2(CCNCc3cc4c(s3)CCC4)CCOC3(CCCC3)C2)nc1` was tested. Which EC50 did it give?
**A.** 0.9 nM
